In patent US20150045610A1, “METHOD OF MODIFYING SPERMATOGENESIS, SPERMIOGENESIS AND/OR FERTILITY IN MAMMALS” (Monell Chemical Senses Center, priority 2012, published 2015):

Target: T1, humanized mhT1R3 (Homo sapiens, UniProt Q7RTX0, A109T/A120V/A176D/A197V/A198V/A228S/A231N/A248T/A280V/A282S/A302S/A412V/A417V/A46T/A537T/C375D/D124S/D249S/D250G/D364H/D419E/D470T/D491G/D88A/DEL352-352/DEL488-489/E172D/E199T/E203N/E217D/E356N/E45S/E481Q/E505D/E525K/E545Q/F540P/F555L/G168S/G205S/G311T/G314N/G355L/G360D/G414H/G438R/G439D/G463S/G50T/G542N/H261R/H278R/H281Y/H332P/I485M/I536F/INS376MLQNLSSG/K32Q/K339E/K422L/K494V/K86G/L173R/L245Q/L272V/L29F/L354S/L385Q/L433M/L458M/L483S/L71F/L74M/M151L/M315I/M318V/M31A/N285S/N386L/N532H/N68L/P112S/P246H/P335S/P416H/P420H/P441T/P60I/Q221E/Q257L/Q317R/Q330L/Q336H/Q359L/Q372R/Q418S/Q504K/Q531K/R123Q/R247D/R252Q/R291G/R30K/R357A/R443Q/R467V/R473T/R479Q/R482Q/R486Y/R498Q/R52N/R550K/R553A/R556P/R560K/R56Q/S251Q/S267K/S289H/S290H/S392A/S446A/S447E/S464P/S477T/S490P/S53Q/S559P/S58N/S67P/T195Q/T346A/T377L/T390I/T434S/T480L/T63N/V152I/V277A/V366M/V36I/V381L/V393T/V437A/V465T/V61P/W72L)
T1 construct: the extracellular domain is of mouse origin and the transmembrane and intracellular domains of human origin; mouse T1R3 extracellular domain (fusion partner replacing the human extracellular domain); expressed in transfected cells; host or cells: transgenic Line 7c mice (T1R3-/-, Gus-/-, mhT1R3+/-)
T1 sequence (Q7RTX0 with tags, fused parts or gaps L29F/R30K/M31A/K32Q/V36I/E45S/A46T/G50T/R52N/S53Q/R56Q/S58N/P60I/V61P/T63N/S67P/N68L/L71F/W72L/L74M/K86G/D88A/A109T/P112S/A120V/R123Q/D124S/M151L/V152I/G168S/E172D/L173R/A176D/T195Q/A197V/A198V/E199T/E203N/G205S/E217D/Q221E/A228S/A231N/L245Q/P246H/R247D/A248T/D249S/D250G/S251Q/R252Q/Q257L/H261R/S267K/L272V/V277A/H278R/A280V/H281Y/A282S/N285S/S289H/S290H/R291G/A302S/G311T/G314N/M315I/Q317R/M318V/Q330L/H332P/P335S/Q336H/K339E/T346A/DEL352-352/L354S/G355L/E356N/R357A/Q359L/G360D/D364H/V366M/Q372R/C375D/INS376MLQNLSSG/T377L/V381L/L385Q/N386L/T390I/S392A/V393T/A412V/G414H/P416H/A417V/Q418S/D419E/P420H/K422L/L433M/T434S/V437A/G438R/G439D/P441T/R443Q/S446A/S447E/L458M/G463S/S464P/V465T/R467V/D470T/R473T/S477T/R479Q/T480L/E481Q/R482Q/L483S/I485M/R486Y/DEL488-489/S490P/D491G/K494V/R498Q/Q504K/E505D/E525K/Q531K/N532H/I536F/A537T/F540P/G542N/E545Q/R550K/R553A/F555L/R556P/S559P/R560K limits assumed): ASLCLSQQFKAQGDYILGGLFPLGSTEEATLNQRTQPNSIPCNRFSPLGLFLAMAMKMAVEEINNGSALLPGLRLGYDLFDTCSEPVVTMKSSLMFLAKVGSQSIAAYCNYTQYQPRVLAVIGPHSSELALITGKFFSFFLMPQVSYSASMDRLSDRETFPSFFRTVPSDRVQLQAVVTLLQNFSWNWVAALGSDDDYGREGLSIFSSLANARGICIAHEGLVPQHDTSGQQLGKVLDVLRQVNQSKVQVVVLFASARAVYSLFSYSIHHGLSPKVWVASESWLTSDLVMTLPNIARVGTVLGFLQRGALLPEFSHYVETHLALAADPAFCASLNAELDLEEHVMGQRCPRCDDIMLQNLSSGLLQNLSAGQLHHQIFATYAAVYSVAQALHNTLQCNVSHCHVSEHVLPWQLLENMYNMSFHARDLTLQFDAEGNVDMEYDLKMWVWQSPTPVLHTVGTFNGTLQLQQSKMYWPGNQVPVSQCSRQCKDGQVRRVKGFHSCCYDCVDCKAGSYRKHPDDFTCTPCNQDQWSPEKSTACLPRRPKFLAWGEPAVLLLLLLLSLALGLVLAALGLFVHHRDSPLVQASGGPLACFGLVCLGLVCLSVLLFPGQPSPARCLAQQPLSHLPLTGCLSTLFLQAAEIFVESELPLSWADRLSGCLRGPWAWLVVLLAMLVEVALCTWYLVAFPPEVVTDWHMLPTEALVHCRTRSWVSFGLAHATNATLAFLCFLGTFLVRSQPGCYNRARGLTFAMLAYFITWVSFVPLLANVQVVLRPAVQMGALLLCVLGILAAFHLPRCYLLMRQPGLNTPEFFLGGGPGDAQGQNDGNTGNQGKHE
Assay: T1R3 pharmacological block with clofibrate diet (male reproduction)
Format: in vivo, mouse
Details: line 7c males on clofibrate diet, mated with WT females
Protocol: Matched groups (six males each) of WT and line 7c mice (expressing the chimerical mhT1R3 transgene on a T1R3/α-gustducin double-null background), 3-6 months old, were fed the indicated diets for 4-6 weeks. Each genotype was tested in two groups, one on the regular diet and one on a test diet with clofibrate. An additional group of males stayed on the test diet for another 4-6 weeks, during which time they were mated with WT females to determine whether the pharmacological intervention was effective. Then the animals were allowed to recover on the regular diet for an additional 4 weeks after the end of the treatment (half-time for total sperm turnover in mice), and again were tested for their reproductive capacity, and then their tissues were analyzed. […]
We observed spermatozoa after clofibrate treatment represent cells that were able to escape the inhibition of clofibric acid, most likely due to very fast clearance and fluctuating levels in rodents. […] Therefore, we measured sperm concentration as an indicator of efficiency of the pharmacological block and to be able to determine the concentration that results in effective sterility. We analyzed testicular morphology, sperm production, sperm motility and sperm function in in vitro fertilization after feeding these animals with the lipid lowering drug clofibrate. […]

Question: For CC(C)(Oc1ccc(Cl)cc1)C(=O)O [clofibric acid], which male fertility is on record?
Answer: Its male fertility is “significantly affected male fertility”.
